Values joined by “and” are separate entries in the source; they are usually repeats but may differ in a detail not shown here. Identical values can stand only once.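 Each compound was tested at five concentrations against cells in 96-well plates for 48 hours. At the TGI there is no net growth.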
Assays:
Experiment in all cases: growth of human tumour cells (NCI), 48 h
MALME-3M melanoma = test system: MALME-3M melanoma
SK-MEL-5 melanoma = test system: SK-MEL-5 melanoma
HCT-116 colon = test system: HCT-116 colon
SK-OV-3 ovarian = test system: SK-OV-3 ovarian
HOP-62 NSCLC = test system: HOP-62 NSCLC
SK-MEL-28 melanoma = test system: SK-MEL-28 melanoma
T-47D breast = test system: T-47D breast
NCI-H522 lung = test system: NCI-H522 lung
SK-MEL-2 melanoma = test system: SK-MEL-2 melanoma
SW-620 colon = test system: SW-620 colon

SMILES | TGI (MALME-3M melanoma) | TGI (SK-MEL-5 melanoma) | TGI (HCT-116 colon) | TGI (SK-OV-3 ovarian) | TGI (HOP-62 NSCLC) | TGI (SK-MEL-28 melanoma) | TGI (T-47D breast) | TGI (NCI-H522 lung) | TGI (SK-MEL-2 melanoma) | TGI (SW-620 colon)
CO/N=C(\C)c1cccc(Nc2nc3ccccc3c3occc23)c1 | 29.7 µM | 28.7 µM | 23.8 µM | 27.1 µM | 28.7 µM | 27.6 µM | 31.3 µM | – | – | –
Nc1nc(OCC2CCCCC2)c2[nH]cnc2n1 | > 50.4 µM | 67.2 µM | 74 µM | 68.5 µM | 53.9 µM | 99.2 µM | 30 µM | 60.1 µM | 22.1 µM | > 100 µM
O=C(NC(Cc1ccc(I)cc1)C(=O)O)c1ccc(Cl)cc1 (stereo not given) | > 100 µM | > 100 µM | > 100 µM | > 100 µM | > 100 µM | > 100 µM | – | > 100 µM | > 100 µM | > 100 µM
CCSc1nc(-c2cccs2)nc2ccc(I)cc12 | – | > 100 µM | > 100 µM | – | > 100 µM | > 100 µM | 6.88 µM | > 100 µM | > 100 µM | > 100 µM
CC1CC(Br)C(=O)O1 (stereo not given) | > 100 µM | > 100 µM | > 100 µM | > 100 µM | > 100 µM | > 100 µM | > 100 µM | > 100 µM | > 100 µM | > 100 µM
NCCNCCNc1ccc(NCCNCCN)c2c1C(=O)c1c(O)ccc(O)c1C2=O | > 100 µM | > 100 µM | > 100 µM | > 100 µM | > 100 µM | > 100 µM | – | > 100 µM | – | > 100 µM
c1ccc([P+](c2ccccc2)(c2ccccc2)c2ccc(-c3ccc([P+](c4ccccc4)(c4ccccc4)c4ccccc4)cc3)cc2)cc1 | 89.9 µM | 3.32 µM | 58 µM | > 100 µM | > 100 µM | > 100 µM | > 100 µM | 64.4 µM | 62 µM | > 100 µM
Cc1c2cc[n+](C)cc2c(C)c2c1oc1ccccc12 | 3.99 µM | 14.1 µM | 24.5 µM | 57.8 µM | 11.2 µM | 21.8 µM | – | 8.17 µM | 15.8 µM | 51.4 µM
O=C1OC2(OC2c2ccc(Cl)cc2)c2ccccc21 (stereo not given) | > 100 µM | – | > 100 µM | > 100 µM | 41.6 µM | > 100 µM | – | > 100 µM | > 100 µM | > 100 µM
CN(C)CCCN1c2ccc([N+](=O)[O-])cc2CCc2cc([N+](=O)[O-])ccc21 | 23.2 µM and 32.8 µM | 29.5 µM and 23.1 µM | 27.4 µM and 27.1 µM | 32.4 µM and 29 µM | 30.4 µM and 25.6 µM | 30 µM and 29.3 µM | 32.1 µM and 36.3 µM | 32.3 µM and 34 µM | 36.9 µM and 32.4 µM | 34 µM and 33.2 µM
COc1ccc2c(c1)/C(=C\c1c(Cl)n(-c3ccccc3)c3ccccc13)C(=O)N2 | 19.3 µM | 21.3 µM | 14.6 µM | > 100 µM | 33.6 µM | > 100 µM | 75.4 µM | – | 51.1 µM | > 100 µM
CCOC(=O)Nc1cc2c(c(N)n1)N=C(c1ccc3ccccc3c1)CN2 | 19.3 µM | 4.69 µM | 1.49 µM | 18.9 µM | – | > 100 µM | > 100 µM | 0.545 µM | 5.15 µM | 31.4 µM
C[N+](C)(C)CCN[N+]1(C)CCCc2ccccc21 (stereo not given) | 50.3 µM | > 100 µM | > 100 µM | > 100 µM | > 100 µM | > 100 µM | > 100 µM | 40.3 µM | > 100 µM | > 100 µM
COc1cc([N+](=O)[O-])ccc1NC(=O)c1cccc([N+](=O)[O-])c1O | 63.5 µM | 31 µM | > 100 µM | 77.9 µM | > 100 µM | > 100 µM | – | 39 µM | 68 µM | > 100 µM
CC1(C=O)CCC23COC4(CCC5C6(C)CCC(OC7OCC(OC8OC(CO)C(O)C(OC9OC(CO)C(O)C(O)C9O)C8OC8OCC(O)C(O)C8O)C(O)C7OC7OC(CO)C(O)C(O)C7O)C(C)(C)C6CCC5(C)C4(C)CC2O)C3C1 (stereo not given) | – | 2.96 µM | 2.74 µM | 2.57 µM | 3.6 µM | – | 3.36 µM | 3.41 µM | 2.98 µM | 3.14 µM
CS(=O)(=O)OCCN(CCOS(C)(=O)=O)c1ccc(/C=N/Nc2ncnc3nc[nH]c23)cc1 | 55.2 µM | 31.7 µM | 59.9 µM | > 100 µM | 74.8 µM | 63.4 µM | – | 31.1 µM | 39.2 µM | 66.8 µM
Cc1ccc([N+](=O)[O-])cc1S(=O)(=O)Nc1ccc(C2=NOC(c3ccccc3O)C2)cc1 (stereo not given) | > 100 µM | 49.4 µM | 34.5 µM | > 100 µM | > 100 µM | > 100 µM | > 100 µM | 6.4 µM | > 100 µM | > 100 µM
O=c1c2cc(S(=O)(=O)O)ccc2nc(COc2ccc(Oc3ccc(Cl)cc3Cl)cc2)n1C(=S)Nc1ccc(Cl)cc1 | 49 µM | 33.1 µM | 53.3 µM | 49 µM | 44.4 µM | – | > 100 µM | 39.8 µM | 37.4 µM | 49.4 µM
O=C1CSC(c2ccccc2O)N1c1nc2cc3sc(N4C(=O)CSC4c4ccccc4O)nc3cc2s1 (stereo not given) | > 100 µM | > 100 µM | > 100 µM | > 100 µM | > 100 µM | > 100 µM | > 100 µM | > 100 µM | > 100 µM | > 100 µM
N=C(N)SCc1cccc([N+](=O)[O-])c1 | > 76.6 µM | > 100 µM | > 83.7 µM | > 81.4 µM | > 78.1 µM | 98.9 µM | – | 18.2 µM | > 73.7 µM | > 100 µM
O=C1N(CN2CCOCC2)CN(CN2CCOCC2)C(=O)N1Cc1ccc(CN2C(=O)N(CN3CCOCC3)CN(CN3CCOCC3)C2=O)cc1 | – | > 100 µM | > 100 µM | > 100 µM | > 100 µM | > 100 µM | > 100 µM | > 100 µM | 39.8 µM | > 100 µM
